Laboratory results reported in US12022787B2, “Efficient monocot embryo extraction and preservation methods and novel uses thereof” (Wisconsin Alumni Research Foundation, priority 2019, dated 2024).

Key:
[1] = tested on: Barley shoot tips / mature embryo explants; assay: Multiple bud/shoot induction from barley mature embryo explants on bud induction media; type: in vivo; details: for multiple bud/shoot induction in barley shoot tips: relatively high amount of cytokinin to 2,4-D, 2 weeks
Procedure: To induce multiple buds/shoots from the leaf base of Barley shoot tips post co-culture, we applied medium with a high relative amount of cytokinin to auxin (measured by either concentration or relative activity). Explants were generally on these bud induction medium for a total of 2 weeks, after which presence of multiple buds/shoots was assessed (phenotype shown in FIG. 21, with data summarized in boxplot form in FIG. 22). […] In some experiments, after 1 week on induction media without selection, explants were transferred to induction media with selection. During this 2-week period explants were kept at 27 C 16/8 photoperiod. It may be possible to reduce chimerism in T0 Barley plants by extending this shoot multiplication step to 4-8 weeks.(9)
We followed this experiment up examining removal of 2,4-D from the bud induction phase, as well as its replacement with either picloram or fipexide.

[2] = tested on: LH244 maize iVAEs (immature embryos, 20 DAP); assay: Glyphosate sensitivity (selection titer) of dried, frozen, rehydrated maize iVAEs on Regeneration II medium; type: in vivo
Procedure: Maize iVAEs (Immature Value-Added Explants) were prepared following the methods outlined below, and viability and glyphosate sensitivity of the dried, stored embryos were tested. These iVAEs were incubated for four days in a drying chamber with MgNO3 saturated salts and then stored at s −20° C. These frozen iVAEs were later pulled from storage and used to determine process survival as well as used in an experiment to determine sensitivity to the herbicide glyphosate (Millipore Sigma Glyphosate “N-(Phosphonomethyl) glycine”; Cat #337757-5G) for future use as a selection agent for these novel explants.
Post Storage Rehydration Method of the iVAE embryos: Dried maize embryos (iVAEs) were placed on a sterile plate of Regeneration Medium II) and incubated at room temperature for 1 hour. Afterward, sterile water was added and embryos were incubated at room temperature for an additional hour followed by gentile agitation to complete the rehydration process. Embryos were then placed on experimental media to determine survival as well as sensitivity to glyphosate. The rehydrated maize iVAEs were placed on media plates, evenly spaced, and each plate was sealed with porous tissue culture tape and incubated in growth chamber at 26° C. with 16/8 light/dark photoperiod with 60 μmol m-2 s-1. For up to 56 days of observation.
20 DAP LH244 ears were collected from self-pollinated plants in the greenhouse. The embryos were extracted using the iVAE protocol. The extracted and cleaned embryos were placed in a drying chamber with MgNO3 saturated salts for 4 days. LH244 embryos were frozen for 4 days, or until used, at −20° C. in a hermetically closed 50 mL Falcon tube
LH244 embryos were rehydrated as described in Example 9. Following rehydration, plates were set up using Regeneration II Medium. The first replicate has 30 embryos per plate, and the second only 22 per plate. The measurements are standardized to the number of surviving embryos, as measured by the number of embryos displaying coleoptile elongation. A subset of embryos was tested for viability using tetrazolium chloride (TTC).
We analyzed this experiment by counting the percent germination, looking at stress phenotype and using the viability stain tetrazolium chloride (TTC). In general, during germination, green tissue is healthy, purple tissue is stressed and producing anthocyanins, and silver or white tissue is not producing chlorophyll.

In the case of `O=C(COc1ccc(Cl)cc1)N1CCN(Cc2ccc3c(c2)OCO3)CC1` [fipexide], the “explant health versus controls” value ([1]; 3 ppm TDZ, 10 ppm fipexide) is reported as “looked healthier than controls on 2,4-D media”, the “explant phenotype after 2 weeks on bud induction media” value (shortened to “explant phenotype after 2 weeks”) ([1]; 3 ppm TDZ, 10 ppm fipexide) is reported as “multiple shooting/budding phenotype” and the “explant phenotype after 2 weeks” value ([1]; 10 ppm fipexide, TDZ removed) is reported as “germinating phenotype”. The “explant phenotype after 2 weeks” value ([1]; 100 ppm fipexide) was “explant sensitivity”.

For `O=C(Nc1ccccc1)Nc1cnns1` [TDZ, thidiazuron], the “explant phenotype after 2 weeks” value ([1]; 3 ppm TDZ, 1 ppm 2,4-D) was “multiple shooting/budding phenotype” and the “multiple bud/shoot induction in barley shoot tips” value [1] was “could induce multiple buds/shoots”.

In the case of `O=C(O)CNCP(=O)(O)O` [glyphosate, N-(Phosphonomethyl) glycine], the “damage (loss of greening shoots)” value ([2]; 10 μM glyphosate treatment plates, at 27 days) is reported as 90%, the “reduction in frequency of greening shoots (impairment)” value ([2]; 50 μM glyphosate treatment plates, 10 days after start) is reported as “about 80%” and the “glyphosate concentration giving apparent reduction of anthocyanins synthesis” value ([2]; after 49 days) is reported as ≥ 100 µM. For the same compound, the “anthocyanin production in treated embryos” value ([2]; in response to glyphosate) was “significant anthocyanin production”.

`c1ccc(CNc2ncnc3nc[nH]c23)cc1` [BAP, 6-benzylaminopurine] was tested, and the “multiple bud/shoot induction in barley shoot tips” value [1] was “could induce multiple buds/shoots”.
